Patent publication US12427179B2, “Compositions and methods for diagnosis and treatment of neurodegenerative diseases” (EPITRACKER, INC., priority 2019, dated 2025)

Assays:
[1] = test system: SAg: Venular endothelial cells, peripheral blood mononuclear cells (TCR ligands); assay: BioMAP SAg system; type: cell-based, human
Experimental: (§1) Anti-inflammatory phenotypic profiling was conducted across 12 human primary cell-based systems as part of DiscoverX's BioMAP Diversity Plus program. These systems are designed to model complex human tissue and disease biology of the vasculature, skin, lung, and inflammatory tissues. Quantitative measurements of biomarker activities across this broad panel were used to assess each biochemical's anti-inflammatory activity at four concentrations ([…] and 2.2, 6.7 and 20 μM). […] Protein-based biomarkers from activated cell systems were measured and compared with controls. Biomarker activities were annotated when 2 or more consecutive concentrations change in the same directions relative to vehicle controls, were outside of the significance envelope and had at least one concentration with an effect size>20% (log 10 ratio)>0.1.
In this system, human primary peripheral blood mononuclear cells and human umbilical vein endothelial cells were stimulated with T-cell receptor ligands and incubated with the test agent, drug control, or vehicle control for 24 hours. A negative, non-stimulated system was also included. […] This antiproliferative activity was lost at higher concentrations (20 μM). In this system, T cell proliferation is considered a critical event driving an inflammatory response.
(§2) The Diversity PLUS panel allows test agent characterization in an unbiased way across a broad set of systems modeling various human disease states. These systems are designed to model complex human tissue and disease biology of the vasculature, skin, lung, and inflammatory tissues. Quantitative measurements of 148 biomarker activities across this broad panel, along with comparative analysis of biological activities from known bioactive agents, were used to predict and compare the efficacy and function of each selected compound at selected concentrations (6.7 and/or 20 μM). […]
(§3) Each test agent generates a signature BioMAP profile that is created from the changes in protein biomarker readouts within individual system environments. Biomarker readouts (7-17 per system) are selected for therapeutic and biological relevance, are predictive for disease outcomes or specific drug effects and are validated using agents with known mechanism of action (MoA). Each readout is measured quantitatively by immune-based methods that detect protein (e.g., ELISA) or functional assays that measure proliferation and viability. BioMAP readouts are diverse and include cell surface receptors, cytokines, chemokines, matrix molecules and enzymes. In total, the Diversity PLUS panel contains 148 biomarker readouts that capture biological changes that occur within the physiological context of the particular BioMAP system. […]

[2] = white powder; cited from earlier work
[3] = test system: BE3C: Bronchial epithelial cells (IL-1β, IFNγ, TNFα); assay: BioMAP BE3C system; type: cell-based, human; settings: at the compound's active concentration
Source text: The Diversity PLUS panel allows test agent characterization in an unbiased way across a broad set of systems modeling various human disease states. These systems are designed to model complex human tissue and disease biology of the vasculature, skin, lung, and inflammatory tissues.
(§4) BioMAP systems are constructed with one or more primary cell types from healthy human donors, with stimuli (such as cytokines or growth factors) added to capture relevant signaling networks that naturally occur in human tissue or pathological conditions. Vascular biology is modeled in both a Th1 (3C system) and a Th2 (4H system) inflammatory environment, as well as in a Th1 inflammatory state specific to arterial smooth muscle cells (CASM3C system). Additional systems recapitulate aspects of the systemic immune response including monocyte-driven Th1 inflammation (LPS system) or T cell stimulation (SAg system), chronic Th1 inflammation driven by macrophage activation (lMphg system) and the T cell-dependent activation of B cells that occurs in germinal centers (BT system). The BE3C system (Th1) and the BF4T system (Th2) represent airway inflammation of the lung, while the MyoF system models myofibroblast-lung tissue remodeling. Lastly, skin biology is addressed in the KF3CT system modeling Th1 cutaneous inflammation and the HDF3CGF system modeling wound healing.
(§5) Each test agent generates a signature BioMAP profile that is created from the changes in protein biomarker readouts within individual system environments. Biomarker readouts (7-17 per system) are selected for therapeutic and biological relevance, are predictive for disease outcomes or specific drug effects and are validated using agents with known mechanism of action (MoA). Each readout is measured quantitatively by immune-based methods that detect protein (e.g., ELISA) or functional assays that measure proliferation and viability. BioMAP readouts are diverse and include cell surface receptors, cytokines, chemokines, matrix molecules and enzymes.
(§6) Activated BioMAP systems were incubated with each compound for 24 to 72 hours. Protein-based biomarkers from activated cell systems were measured and compared with non-treated control systems.

[4] = test system: MyoF: Lung fibroblasts (TGFβ, TNFα); assay: BioMAP MyoF system; type: cell-based, human; settings: at the compound's active concentration
Source text: (§7) The Diversity PLUS panel allows test agent characterization in an unbiased way across a broad set of systems modeling various human disease states. These systems are designed to model complex human tissue and disease biology of the vasculature, skin, lung, and inflammatory tissues. Quantitative measurements of 148 biomarker activities across this broad panel, along with comparative analysis of biological activities from known bioactive agents, were used to predict and compare the efficacy and function of each selected compound at selected concentrations (6.7 and/or 20 μM).
as §4, §3, §6

[5] = test system: HDF3CGF: Dermal fibroblasts; assay: BioMAP HDF3CGF system; type: cell-based, human; settings: at the compound's active concentration
Source text: as §7, §4
Each test agent generates a signature BioMAP profile that is created from the changes in protein biomarker readouts within individual system environments. Biomarker readouts (7-17 per system) are selected for therapeutic and biological relevance, are predictive for disease outcomes or specific drug effects and are validated using agents with known mechanism of action (MoA). Each readout is measured quantitatively by immune-based methods that detect protein (e.g., ELISA) or functional assays that measure proliferation and viability. BioMAP readouts are diverse and include cell surface receptors, cytokines, chemokines, matrix molecules and enzymes. In total, the Diversity PLUS panel contains 148 biomarker readouts that capture biological changes that occur within the physiological context of the particular BioMAP system. Specific BioMAP activities have been correlated to in vivo biology, and multiparameter BioMAP profiles have been used to distinguish compounds based on MoA and target selectivity across diverse physiological systems.
as §6

[6] = test system: BT: Peripheral blood mononuclear cells, B cells (α-IgM, TCR ligands); assay: BioMAP BT system; type: cell-based, human; settings: BT system; at the compound's active concentration
Experimental: as §1
In the first system, human primary peripheral blood mononuclear cells and venular endothelial cells were stimulated with lipopolysaccharide (LPS) and incubated with the test agent, drug control, or vehicle control for 24 hours. In the second system, peripheral blood mononuclear cells and B cells were stimulated with α-IgM and T cell receptor ligands and incubated with the test agent, drug control, or vehicle control for 24 hours. In both systems, a negative, non-stimulated system was also included.
as §7, §4, §3

[7] = test system: human primary cell-based systems; assay: BioMAP Diversity PLUS panel, phenotypic profiling; settings: tested at 6.7 and/or 20 μM; 24 to 72 hours
Experimental: as §1, with “controls.” for “controls. Biomarker activities were annotated when 2 or more consecutive concentrations change in the same directions relative to vehicle controls, were outside of the significance envelope and had at least one concentration with an effect size>20% (log 10 ratio)>0.1.”
as §7, §4
Each test agent generates a signature BioMAP profile that is created from the changes in protein biomarker readouts within individual system environments. Biomarker readouts (7-17 per system) are selected for therapeutic and biological relevance, are predictive for disease outcomes or specific drug effects and are validated using agents with known mechanism of action (MoA). Each readout is measured quantitatively by immune-based methods that detect protein (e.g., ELISA) or functional assays that measure proliferation and viability. BioMAP readouts are diverse and include cell surface receptors, cytokines, chemokines, matrix molecules and enzymes. In total, the Diversity PLUS panel contains 148 biomarker readouts that capture biological changes that occur within the physiological context of the particular BioMAP system.
as §6

[8] = test system: KF3CT: Keratinocytes, dermal fibroblasts; assay: BioMAP KF3CT system; type: cell-based, human; settings: at the compound's active concentration
Source text: as §2
as §5, with “enzymes. […]” for “enzymes.”

Compound: N[C@@H](CC(O)C(=O)O)C(=O)O (some centres unmarked) [4-hydroxyglutamate]
- T cell antiproliferative activity ([1]; higher concentrations (20 μM), 24 hours): lost
- Stability of the pure powder [2]: stable at room temperature

Compound: Nc1ncnc2c1ncn2[C@@H]1O[C@H](CSCC[C@H](N)C(=O)O)[C@@H](O)[C@H]1O [S-adenosylhomocysteine (SAH), S-adenosylhomocysteine]
- T cell proliferation, log10 reduction vs nontreated controls ([1]; SAg system, at the compound's active concentration): −0.21 log10
- CXCL11, log10 reduction vs nontreated controls [3]: −0.13 log10
- HLA-DR, log10 reduction vs nontreated controls [3]: −0.13 log10
- IL-8, log10 reduction vs nontreated controls [3]: −0.13 log10
- MMP-9, log10 reduction vs nontreated controls [3]: −0.24 log10
- Alpha-SM actin, log10 reduction vs nontreated controls [4]: −0.18 log10
- Collagen I, log10 reduction vs nontreated controls [4]: −0.15 log10
- Collagen III, log10 reduction vs nontreated controls [4]: −0.27 log10
- VCAM-1, log10 reduction vs nontreated controls [4]: −0.12 log10
- CXCL10, log10 reduction vs nontreated controls [5]: −0.19 log10
- CXCL11, log10 reduction vs nontreated controls [5]: −0.25 log10
- Collagen III, log10 reduction vs nontreated controls [5]: −0.21 log10
- Fibroblast proliferation, log10 reduction vs nontreated controls [5]: −1.10 log10
- M-CSF, log10 reduction vs nontreated controls [5]: −0.19 log10
- MCP-1, log10 reduction vs nontreated controls [5]: −0.14 log10
- TIMP-1, log10 reduction vs nontreated controls [5]: −0.14 log10
- VCAM-1, log10 reduction vs nontreated controls [5]: −0.17 log10
- Secreted IgG, log10 reduction vs nontreated controls [6]: −0.29 log10
- Active concentrations [7]: 20 µM
- MMP-9, log10 reduction vs nontreated controls [8]: −0.10 log10
- PAI-1, log10 reduction vs nontreated controls [8]: −0.28 log10
